# Measurements taken from patent US20140106967A1, “AUXIN PLANT GROWTH REGULATORS” (The Governors of The University of Alberta, priority 2011, published 2014).
# Test system: pea plants cv. 'Carneval'
# Experiment: Growth chamber experiment 2, pea 'Carneval' sprayed with 4-ME-IAA: peduncle/pedicel growth and seed yield, with or without heat stress (Tables P3-P12)
# Type: in vivo, Pisum sativum L.
# Procedure: For growth chamber experiment, seeds of ‘Carneval’ were planted at an approximate depth of 2.5 cm in 3-L plastic pots (4 seeds per pot and thinned to 2 plants per pot after approximately 2 weeks) in 1:1 Sunshine #4 potting mix (Sun Gro Horticulture, Vancouver, Canada) and sand. The experiment was arranged in a completely randomized design and grown at the University of Alberta in a growth chamber set at 19° C./17° C. (day/night) with a 16/8-h photoperiod under cool-white fluorescent lights (54W/835/HO high fluorescent bulbs, Phillips, Holland; 350 μE m^2 s^−2). For the heat stress treatment, plants were placed in a separate growth chamber with a 16/8-h photoperiod under cool-white fluorescent lights (F54/15/835/HO high fluorescent bulbs, Phillips, Holland) for 4 days where the temperature was cycled over a 24 hr period as follows: 33° C. air temperature for 6 hours per day (between 11:00 and 17:00 hrs) for 4 days during the light cycle; the remainder of the light cycle was maintained at a 22° C. air temperature; the dark cycle was maintained at 19° C. After the 4 day heat treatment, the plants were returned to the same growth chamber they were originally grown in, where they were taken to maturity.
# For experiment 2, aqueous 4-methyl-indole-3-acetic acid (4-ME-IAA) solutions at 1×10^−7, 1×10^−6, 1×10^−5, or 1×10^−4 M in 0.1% (v/v) Tween 80 or aqueous 0.1% (v/v) Tween 80 (control) were applied as a spray to the entire plant to cover when the first flowering node of the main stem was near or at anthesis. In addition to the application at the timing cited above, one application of 4-ME-IAA at 1×10^−6 M or 1×10^−5 M was made when the floral buds were tightly clustered inside the stipule leaves at the stem apex (floral buds not visible outside of stipule leaves; designated the ‘Early’ treatment). In the heat stress treatment, the hormone or control treatment application was completed 16 hrs prior to the initiation of the first heat-stress cycle. The length and diameter (measured mid-length) of the lower and upper peduncles and pedicels of the inflorescence with two pods (or the lower peduncle and pedicel if a single pod node) at the first, second, third and fourth flowering nodes of the main stem of pea plants were determined for hormone-treated and control plants. Standard error of the mean (SE) was calculated for the means of all data for a measure of statistical significance in comparing treatment means.
# [1] = 1×10^−6 M, first flowering node, heat stress (33° C. 6 h/day, 4 days)
# [2] = 1×10^−6 M, first flowering node, no heat stress
# [3] = 1×10^−6 M, fourth flowering node, heat stress (33° C. 6 h/day, 4 days)
# [4] = 1×10^−6 M, fourth flowering node, no heat stress
# [5] = 1×10^−6 M, heat stress (33° C. 6 h/day, 4 days)
# [6] = 1×10^−6 M, second flowering node, heat stress (33° C. 6 h/day, 4 days)
# [7] = 1×10^−6 M, second flowering node, no heat stress
# [8] = 1×10^−6 M, third flowering node, heat stress (33° C. 6 h/day, 4 days)
# [9] = 1×10^−6 M, third flowering node, no heat stress
# [10] = 1×10^−7 M, applied near or at anthesis, no heat stress
# [11] = 1×10^−7 M, first flowering node, heat stress (33° C. 6 h/day, 4 days)
# [12] = 1×10^−7 M, first flowering node, no heat stress
# [13] = 1×10^−7 M, fourth flowering node, heat stress (33° C. 6 h/day, 4 days)
# [14] = 1×10^−7 M, fourth flowering node, no heat stress
# [15] = 1×10^−7 M, heat stress (33° C. 6 h/day, 4 days)
# [16] = 1×10^−7 M, second flowering node, heat stress (33° C. 6 h/day, 4 days)
# [17] = 1×10^−7 M, second flowering node, no heat stress
# [18] = 1×10^−7 M, third flowering node, heat stress (33° C. 6 h/day, 4 days)
# [19] = 1×10^−7 M, third flowering node, no heat stress
# [20] = Early treatment (tight floral bud stage) 1×10^−5 M, no heat stress
# [21] = Early treatment (tight floral bud stage) 1×10^−6 M, no heat stress
compound,measurement,setting,value
"Cc1cccc2[nH]cc(CC(=O)O)c12 [4-ME-IAA, 4-methyl-indole-3-acetic acid]",Lower Peduncle diameter,[1],1.38 ± 0.08 mm
same,Upper Pedicel Length,[1],8.29 ± 0.18 mm
same,Upper Pedicel diameter,[1],1.43 ± 0.06 mm
same,Upper Peduncle Length,[1],16.71 ± 1.55 mm
same,Upper Peduncle diameter,[1],1.19 ± 0.07 mm
same,Lower Pedicel Length,[2],9.40 ± 0.27 mm
same,Lower Pedicel diameter,[2],1.70 ± 0.04 mm
same,Lower Peduncle Length,[2],75.00 ± 4.00 mm
same,Lower Peduncle diameter,[2],1.65 ± 0.03 mm
same,Upper Pedicel Length,[2],9.40 ± 0.27 mm
same,Upper Pedicel diameter,[2],1.54 ± 0.04 mm
same,Upper Peduncle Length,[2],20.30 ± 1.54 mm
same,Upper Peduncle diameter,[2],1.37 ± 0.05 mm
same,Lower Pedicel Length,[3],7.40 ± 0.24 mm
same,Lower Pedicel diameter,[3],1.49 ± 0.11 mm
same,Lower Peduncle Length,[3],26.80 ± 4.55 mm
same,Lower Peduncle diameter,[3],1.25 ± 0.06 mm
same,Upper Pedicel Length,[3],8.00 mm
same,Upper Pedicel diameter,[3],1.46 mm
same,Upper Peduncle Length,[3],15.00 mm
same,Upper Peduncle diameter,[3],1.33 mm
same,Lower Pedicel Length,[4],8.80 ± 0.25 mm
same,Lower Pedicel diameter,[4],1.34 ± 0.03 mm
same,Lower Peduncle Length,[4],38.00 ± 3.63 mm
same,Lower Peduncle diameter,[4],1.38 ± 0.05 mm
same,Upper Pedicel Length,[4],8.33 ± 0.29 mm
same,Upper Pedicel diameter,[4],1.24 ± 0.05 mm
same,Upper Peduncle Length,[4],16.67 ± 0.69 mm
same,Upper Peduncle diameter,[4],1.16 ± 0.03 mm
same,Ratio of seed number on main stem to lateral stems,[5],2.0 ± 0.5
same,Seed number plant,[5],46.8 ± 3.3
same,Seed weight per per plant,[5],12.9 ± 0.9 g
same,Weight per seed,[5],0.277 ± 0.005 g
same,Lower Pedicel Length,[6],8.80 ± 0.36 mm
same,Lower Pedicel diameter,[6],1.47 ± 0.05 mm
same,Lower Peduncle Length,[6],47.10 ± 3.42 mm
same,Lower Peduncle diameter,[6],1.28 ± 0.06 mm
same,Upper Pedicel Length,[6],8.14 ± 0.14 mm
same,Upper Pedicel diameter,[6],1.43 ± 0.04 mm
same,Upper Peduncle Length,[6],16.86 ± 1.01 mm
same,Upper Peduncle diameter,[6],1.20 ± 0.07 mm
same,Lower Pedicel Length,[7],9.4 ± 0.27 mm
same,Lower Pedicel diameter,[7],1.51 ± 0.04 mm
same,Lower Peduncle Length,[7],58.20 ± 5.41 mm
same,Lower Peduncle diameter,[7],1.51 ± 0.04 mm
same,Upper Pedicel Length,[7],9.20 ± 0.33 mm
same,Upper Pedicel diameter,[7],1.47 ± 0.04 mm
same,Upper Peduncle Length,[7],19.00 ± 0.60 mm
same,Upper Peduncle diameter,[7],1.26 ± 0.02 mm
same,Lower Pedicel Length,[8],7.90 ± 0.28 mm
same,Lower Pedicel diameter,[8],1.43 ± 0.05 mm
same,Lower Peduncle Length,[8],34.50 ± 2.73 mm
same,Lower Peduncle diameter,[8],1.33 ± 0.05 mm
same,Upper Pedicel Length,[8],8.60 ± 0.24 mm
same,Upper Pedicel diameter,[8],1.34 ± 0.04 mm
same,Upper Peduncle Length,[8],15.80 ± 1.11 mm
same,Upper Peduncle diameter,[8],1.17 ± 0.03 mm
same,Lower Pedicel Length,[9],9.00 ± 0.30 mm
same,Lower Pedicel diameter,[9],1.39 ± 0.04 mm
same,Lower Peduncle Length,[9],45.90 ± 4.3 mm
same,Lower Peduncle diameter,[9],1.49 ± 0.04 mm
same,Upper Pedicel Length,[9],9.00 ± 0.29 mm
same,Upper Pedicel diameter,[9],1.31 ± 0.04 mm
same,Upper Peduncle Length,[9],18.00 ± 0.96 mm
same,Upper Peduncle diameter,[9],1.17 ± 0.02 mm
same,Ratio of seed number on main stem to lateral stems,[10],3.0 ± 0.4
same,Seed number per plant,[10],63.5 ± 6.8
same,Seed weight per plant,[10],15.5 ± 1.6 g
same,Weight per seed,[10],0.245 ± 0.004 g
same,increase in seed yield (seed weight per plant) vs control,[10],78%
same,Lower Pedicel Length,[11],9.40 ± 0.34 mm
same,Lower Pedicel diameter,[11],1.73 ± 0.04 mm
same,Lower Peduncle Length,[11],68.40 ± 5.39 mm
same,Lower Peduncle diameter,[11],1.72 ± 0.05 mm
same,Upper Pedicel Length,[11],9.00 ± 0.37 mm
same,Upper Pedicel diameter,[11],1.67 ± 0.06 mm
same,Upper Peduncle Length,[11],18.11 ± 0.59 mm
same,Upper Peduncle diameter,[11],1.45 ± 0.08 mm
same,Lower Pedicel Length,[12],9.30 ± 0.26 mm
same,Lower Pedicel diameter,[12],1.65 ± 0.04 mm
same,Lower Peduncle Length,[12],67.10 ± 5.30 mm
same,Lower Peduncle diameter,[12],1.59 ± 0.04 mm
same,Upper Pedicel Length,[12],9.20 ± 0.20 mm
same,Upper Pedicel diameter,[12],1.52 ± 0.03 mm
same,Upper Peduncle Length,[12],19.80 ± 1.08 mm
same,Upper Peduncle diameter,[12],1.27 ± 0.05 mm
same,Lower Pedicel Length,[13],7.50 ± 0.56 mm
same,Lower Pedicel diameter,[13],1.49 ± 0.05 mm
same,Lower Peduncle Length,[13],38.67 ± 3.18 mm
same,Lower Peduncle diameter,[13],1.58 ± 0.06 mm
same,Upper Pedicel Length,[13],8.00 ± 0.58 mm
same,Upper Pedicel diameter,[13],1.39 ± 0.15 mm
same,Upper Peduncle Length,[13],17.00 ± 1.00 mm
same,Upper Peduncle diameter,[13],1.30 ± 0.06 mm
same,Lower Pedicel Length,[14],9.57 ± 0.37 mm
same,Lower Pedicel diameter,[14],1.37 ± 0.03 mm
same,Lower Peduncle Length,[14],44.00 ± 3.22 mm
same,Lower Peduncle diameter,[14],1.37 ± 0.03 mm
same,Upper Pedicel Length,[14],8.86 ± 0.55 mm
same,Upper Pedicel diameter,[14],1.25 ± 0.04 mm
same,Upper Peduncle Length,[14],18.57 ± 0.61 mm
same,Upper Peduncle diameter,[14],1.12 ± 0.03 mm
same,Ratio of seed number on main stem to lateral stems,[15],1.2 ± 0.2
same,Seed number plant,[15],55.9 ± 5.9
same,Seed weight per per plant,[15],15.3 ± 1.7 g
same,Weight per seed,[15],0.273 ± 0.010 g
same,increase in seed number per plant over control,"1×10^−7 M, mild heat stress",30%
same,increase in seed weight per plant over control,"1×10^−7 M, mild heat stress",29%
same,Lower Pedicel Length,[16],8.78 ± 0.28 mm
same,Lower Pedicel diameter,[16],1.69 ± 0.06 mm
same,Lower Peduncle Length,[16],62.00 ± 2.88 mm
same,Lower Peduncle diameter,[16],1.69 ± 0.05 mm
same,Upper Pedicel Length,[16],8.50 ± 0.22 mm
same,Upper Pedicel diameter,[16],1.55 ± 0.07 mm
same,Upper Peduncle Length,[16],17.00 ± 0.73 mm
same,Upper Peduncle diameter,[16],1.41 ± 0.05 mm
same,Lower Pedicel Length,[17],9.3 ± 0.30 mm
same,Lower Pedicel diameter,[17],1.57 ± 0.05 mm
same,Lower Peduncle Length,[17],55.80 ± 4.61 mm
same,Lower Peduncle diameter,[17],1.57 ± 0.03 mm
same,Upper Pedicel Length,[17],9.20 ± 0.29 mm
same,Upper Pedicel diameter,[17],1.48 ± 0.04 mm
same,Upper Peduncle Length,[17],19.00 ± 0.76 mm
same,Upper Peduncle diameter,[17],1.25 ± 0.02 mm
same,Lower Pedicel Length,[18],8.13 ± 0.40 mm
same,Lower Pedicel diameter,[18],1.70 ± 0.06 mm
same,Lower Peduncle Length,[18],46.13 ± 2.75 mm
same,Lower Peduncle diameter,[18],1.61 ± 0.06 mm
same,Upper Pedicel Length,[18],8.20 ± 0.37 mm
same,Upper Pedicel diameter,[18],1.46 ± 0.11 mm
same,Upper Peduncle Length,[18],18.60 ± 0.98 mm
same,Upper Peduncle diameter,[18],1.31 ± 0.07 mm
same,Lower Pedicel Length,[19],9.44 ± 0.18 mm
same,Lower Pedicel diameter,[19],1.46 ± 0.04 mm
same,Lower Peduncle Length,[19],48.44 ± 2.5 mm
same,Lower Peduncle diameter,[19],1.42 ± 0.05 mm
same,Upper Pedicel Length,[19],9.00 ± 0.33 mm
same,Upper Pedicel diameter,[19],1.26 ± 0.05 mm
same,Upper Peduncle Length,[19],18.38 ± 1.10 mm
same,Upper Peduncle diameter,[19],1.07 ± 0.03 mm
same,number of inflorescences with two pods at the fourth flowering node,"1×10^−7 to 1×10^−4 M, no heat stress, control 10%",70-90 % of the plants
same,number of inflorescences with 2 pods at the third flowering node,"1×10^−7 to 1×10^−4 M, no heat stress, control 20%",80-100 % of the plants
same,increase in seed yield vs control,'Early' treatment 1×10^−6 M,109%
same,Ratio of seed number on main stem to lateral stems,[20],1.5 ± 0.2
same,Seed number per plant,[20],64.8 ± 5.2
same,Seed weight per plant,[20],16.2 ± 1.3 g
same,Weight per seed,[20],0.252 ± 0.006 g
same,Ratio of seed number on main stem to lateral stems,[21],1.6 ± 0.1
same,Seed number per plant,[21],73.8 ± 5.9
same,Seed weight per plant,[21],18.2 ± 1.4 g
same,Weight per seed,[21],0.248 ± 0.006 g
